Laboratory results from DBAASP.
≈ marks a conversion by molar mass, not a printed value. Where “and” joins values, the source holds several entries; their conditions need not be identical. Equal entries are not always repeated.

Assays:
Experiment in all cases: ≥ marks a high value that may be exact or a test limit, other limits are often not marked, values filed in µg/mL are converted to µM
[1] = system: Pseudomonas aeruginosa ATCC 19660
[2] = system: Aeromonas hydrophila BCRC 13018
[3] = system: Enterococcus faecalis BCRC 10066
[4] = system: Helicobacter pylori ATCC 700392
[5] = system: Helicobacter pylori ATCC 43629
[6] = system: Streptococcus agalactiae BCRC 10787
Vibrio vulnificus 204 = system: Vibrio vulnificus 204
Vibrio alginolyticus = system: Vibrio alginolyticus
[7] = system: Helicobacter pylori ATCC 43504
[8] = system: Streptococcus agalactiae 819
Helicobacter pylori = system: Helicobacter pylori
[9] = system: Escherichia coli CIB 84492
[10] = system: Staphylococcus aureus ATCC 25923
[11] = system: Staphylococcus aureus CIB 85462
[12] = system: Escherichia coli ATCC 25922
[13] = system: Candida albicans CIB 45437
[14] = system: Escherichia coli ATCC 8739
[15] = system: Bacillus subtilis ATCC 9372
[16] = system: Pseudomonas aeruginosa ATCC 9027
[17] = system: Staphylococcus aureus ATCC 6538
[18] = system: Proteus vulgaris NCTC 4635
[19] = system: Acinetobacter baumannii NM75
[20] = system: Acinetobacter baumannii NM8
[21] = system: Escherichia coli ATCC 25726
[22] = system: Candida albicans ATCC 90028
[23] = system: Enterobacter cloacae NHTCC 53001
[24] = system: Aggregatibacter actinomycetemcomitans ATCC 29522
[25] = system: Klebsiella pneumoniae ATCC 700603
[26] = system: Pseudomonas aeruginosa ATCC 27853
[27] = system: Staphylococcus aureus ATCC 29213
[28] = system: Proteus mirabilis ATCC 25933
[29] = system: Staphylococcus aureus ATCC 700699
[30] = system: Batrachochytrium dendrobatidis
[31] = system: Staphylococcus aureus ATCC 33591
[32] = system: Klebsiella pneumoniae KK3 9904
[33] = system: Klebsiella pneumoniae KpC+001825971
[34] = system: Staphylococcus epidermidis
[35] = system: Escherichia coli ATCC 11303
[36] = system: Pseudomonas aeruginosa PAO1
[37] = system: Klebsiella pneumoniae ATCC 13883
[38] = system: Staphylococcus aureus ATCC 259230
[39] = system: Staphylococcus aureus ATCC 6538P
Escherichia coli BL21 = system: Escherichia coli BL21
[40] = system: Staphylococcus aureus ATCC BAA-41
[41] = system: Escherichia coli KpC+001812446

## CC(C)C[C@H](NC(=O)[C@@H](NC(=O)[C@H](CO)NC(=O)[C@H](CC(=O)O)NC(=O)[C@H](Cc1c[nH]c2ccccc12)NC(=O)[C@H](CC(=O)O)NC(=O)[C@@H](N)Cc1ccccc1)C(C)C)C(=O)N[C@@H](CCCCN)C(=O)NCC(=O)N[C@H](C(=O)N[C@@H](CCC(=O)O)C(=O)NCC(=O)N[C@@H](Cc1ccccc1)C(=O)N[C@H](C(=O)N[C@@H](CCCN=C(N)N)C(=O)NCC(=O)N[C@@H](Cc1ccc(O)cc1)C(=O)N[C@@H](Cc1ccccc1)C(N)=O)C(C)C)C(C)C [FDWDSVLKGVEGFVRGYF]
[1]
  MIC: 11.1 µM (≈ 23.6 µg/mL)
[2]
  MIC: 11.1 µM (≈ 23.6 µg/mL)
[3]
  MIC: 11.1 µM (≈ 23.6 µg/mL)
[4]
  MIC: 5.66 µM (≈ 12 µg/mL)
[5]
  MIC: 5.66 µM (≈ 12 µg/mL)
[6]
  MIC: 11.1 µM (≈ 23.6 µg/mL)
Vibrio vulnificus 204
  MIC: 11.1 µM (≈ 23.6 µg/mL)
Vibrio alginolyticus
  MIC: 11.1 µM (≈ 23.6 µg/mL)
[7]
  MIC: 5.66 µM (≈ 12 µg/mL)
[8]
  MIC: 11.1 µM (≈ 23.6 µg/mL)
Helicobacter pylori
  MIC: 5.66 µM (≈ 12 µg/mL)

## CC[C@H](C)[C@H](NC(=O)CN)C(=O)N[C@@H](Cc1ccccc1)C(=O)NCC(=O)N[C@@H](CCCCN)C(=O)N[C@H](C(=O)N[C@@H](CC(C)C)C(=O)NCC(=O)N[C@@H](C)C(=O)NCC(=O)N[C@@H](CCCCN)C(=O)N[C@@H](CCCCN)C(=O)N[C@H](C(=O)N[C@@H](CC(C)C)C(=O)N[C@H]1CSSC[C@@H](C(=O)O)NC(=O)[C@H](CC(C)C)NC(=O)CNC(=O)[C@H](CO)NC(=O)[C@H](CC(C)C)NC(=O)CNC1=O)C(C)C)[C@@H](C)CC [GIFGKILGAGKKVLCGLSGLC]
[9]
  MIC: 15.7 µM (≈ 32 µg/mL)
[10]
  MIC: 15.7 µM (≈ 32 µg/mL)
[11]
  MIC: 7.86 µM (≈ 16 µg/mL)
[12]
  MIC: 15.7 µM (≈ 32 µg/mL)
[13]
  MIC: ≥ 62.9 µM

## CC[C@H](C)[C@H](NC(=O)[C@@H](NC(=O)[C@@H](NC(=O)[C@H](CC(=O)O)NC(=O)[C@H](Cc1ccccc1)NC(=O)[C@H](CC(C)C)NC(=O)CN)C(C)C)C(C)C)C(=O)NCC(=O)NCC(=O)N[C@@H](CC(C)C)C(=O)O [GLFDVVIGGL]
[14]
  MIC: ≥ 1040 µM
[15]
  MIC: ≥ 1040 µM
[16]
  MIC: > 1040 µM
[17]
  MIC: > 1040 µM
[18]
  MIC: ≥ 1040 µM

## CC[C@H](C)[C@H](NC(=O)CNC(=O)[C@H](CCCCN)NC(=O)[C@@H](NC(=O)[C@H](CC(C)C)NC(=O)[C@H](CO)NC(=O)CNC(=O)[C@H](CC(C)C)NC(=O)CNC(=O)[C@H](C)NC(=O)[C@H](CCCCN)NC(=O)[C@H](Cc1ccccc1)NC(=O)[C@@H](NC(=O)[C@H](CCCCN)NC(=O)[C@H](CCCCN)NC(=O)[C@H](CC(C)C)NC(=O)CN)[C@@H](C)CC)C(C)C)C(=O)N[C@@H](CCCCN)C(=O)N[C@@H](C)C(=O)N[C@@H](Cc1cnc[nH]1)C(=O)N[C@H](C(=O)N[C@@H](C)C(=O)N[C@@H](CO)C(N)=O)C(C)C [GLKKIFKAGLGSLVKGIKAHVAS]
[10]
  MIC: > 250 µM
[19]
  MIC: 2.5 µM (≈ 5.8 µg/mL)
[20]
  MIC: 5 µM (≈ 11.6 µg/mL)
[21]
  MIC: 10 µM (≈ 23.2 µg/mL)
[22]
  MIC: 20 µM (≈ 46.4 µg/mL)

## CC[C@H](C)[C@H](NC(=O)[C@H](CC(=O)O)NC(=O)[C@H](CCCCN)NC(=O)[C@H](C)NC(=O)[C@H](C)NC(=O)CNC(=O)[C@H](CCCCN)NC(=O)[C@H](CC(C)C)NC(=O)[C@@H](NC(=O)[C@H](CC(=O)O)NC(=O)[C@@H](NC(=O)[C@@H](NC(=O)CN)C(C)C)C(C)C)[C@@H](C)CC)C(=O)N[C@@H](C)C(=O)NCC(=O)N[C@@H](Cc1cnc[nH]1)C(=O)N[C@@H](CC(C)C)C(=O)N[C@@H](C)C(=O)N[C@@H](CO)C(=O)N[C@@H](CCCCN)C(=O)N[C@H](C(=O)N[C@@H](CCSC)C(=O)N[C@@H](CC(N)=O)C(=O)N[C@@H](CCCCN)C(=O)N[C@@H](CC(C)C)C(N)=O)C(C)C [GVVDILKGAAKDIAGHLASKVMNKL]
[10]
  MIC: 110 µM (≈ 280 µg/mL)
[23]
  MIC: 20 µM (≈ 51 µg/mL)
[24]
  MIC: 24.8 µM (≈ 63.3 µg/mL)
[25]
  MIC: 100 µM (≈ 255 µg/mL)
[26]
  MIC: 80 µM and 100 µM
[27]
  MIC: > 100 µM
[28]
  MIC: ≥ 160 µM
[29]
  MIC: ≥ 100 µM
[30]
  MIC: ≥ 100 µM
[31]
  MIC: ≥ 100 µM
[32]
  MIC: ≥ 80 µM

## CC[C@H](C)[C@H](NC(=O)[C@H](CCCCN)NC(=O)[C@H](CCCCN)NC(=O)[C@H](Cc1ccccc1)NC(=O)[C@H](CC(C)C)NC(=O)[C@H](CCCCN)NC(=O)[C@H](Cc1c[nH]c2ccccc12)NC(=O)[C@@H](N)CCCCN)C(=O)NCC(=O)N[C@@H](C)C(=O)N[C@H](C(=O)N[C@@H](CC(C)C)C(=O)N[C@@H](CCCCN)C(=O)N[C@H](C(=O)N[C@@H](CC(C)C)C(=O)O)C(C)C)C(C)C [KWKLFKKIGAVLKVL]
[33]
  MIC: 9 µM (≈ 15.9 µg/mL)
[34]
  MIC: 0.707 µM (≈ 1.25 µg/mL)
[35]
  MIC: ≥ 50 µM
[36]
  MIC: 2.83 µM (≈ 5.01 µg/mL)
[37]
  MIC: ≥ 36 µM
[12]
  MIC: 5 µM (≈ 8.86 µg/mL)
[38]
  MIC: ≥ 50 µM
[39]
  MIC: 1 µM (≈ 1.77 µg/mL)
Escherichia coli BL21
  MIC: 0.707 µM (≈ 1.25 µg/mL)
[40]
  MIC: 1.41 µM (≈ 2.5 µg/mL)
[41]
  MIC: 5 µM (≈ 8.86 µg/mL)
